# Test results: patent US20190388406A1, “METHODS OF PREVENTION AND TREATMENT OF THROMBOSIS” (Portola Pharmaceuticals, Inc., priority 2018, published 2019)
# Assays:
# [1] = tested on: critically ill patients admitted to the intensive care unit (ICU); assay: Occurrence of VTE in critically ill (ICU) patients, post hoc analysis of randomized trial; type: in vivo, human
# From the text: (§1) A multi-center, double-blind, randomized controlled trial enrolled 7,513 patients hospitalized for an acute medical illness with the following eligibility criteria: (1) hospitalization for acute medical illness, including heart failure, respiratory failure, infection, ischemic stroke, or rheumatic disorder; (2) age≥75 years, age 60 to 74 years with D-dimer≥2×the upper limit of normal (ULN), or age 40 to 59 years with D-dimer≥2×ULN and history of VTE or cancer; (3) anticipated severe immobilization for ≥24 hours followed by moderate or severe immobilization for 3 or more days; and (4) anticipated hospitalization for 3 or more days. Patients were randomly allocated in a 1:1 ratio to extended-duration betrixaban (35 to 42 days) or standard-duration enoxaparin (10±4 days).
# (§2) The present study is a post hoc analysis of the effect of betrixaban in critically ill patients admitted to the intensive care unit (ICU) during the index hospitalization and received extended-duration betrixaban. The study population included in the present analysis was subjects admitted to the ICU during the index hospitalization event.
# (§3) The primary efficacy endpoint was the occurrence of VTE, defined as a composite of asymptomatic proximal DVT, symptomatic DVT, non-fatal pulmonary embolism (PE), or VTE-related mortality. Safety endpoints were the occurrence of major bleeding and clinically relevant non-major bleeding, defined according to the International Society on Thrombosis and Haemostasis (ISTH) criteria. (Schulman S, Kearon C, Subcommittee on Control of Anticoagulation of the S, Standardization Committee of the International Society on T, Haemostasis. Definition of major bleeding in clinical investigations of antihemostatic medicinal products in non-surgical patients. J Thromb Haemost. 2005; 3:692-694; and Kaatz S, Ahmad D, Spyropoulos AC, Schulman S, Subcommittee on Control of A. Definition of clinically relevant non-major bleeding in studies of anticoagulants in atrial fibrillation and venous thromboembolic disease in non-surgical patients: communication from the SSC of the ISTH. J Thromb Haemost. 2015; 13:2119-2126.) All events were adjudicated by an independent clinical events committee blinded to thromboprophylaxis allocation.
# (§4) Baseline characteristics of study participants were compared between treatment arms using the chi-squared test for categorical variables and one-way analysis of variance (ANOVA) for continuous variables, respectively. We analyzed efficacy using a modified intention-to-treat (mITT) population, which included subjects who received at least one dose of study medication and had data on one or more of the efficacy components. The bleeding risk of thromboprophylaxis was analyzed with the actual regimen received in the safety population, which included all randomized patients who received at least one dose of study medication. […] Absolute risk difference and relative risk of betrixaban vs. enoxaparin group were calculated and compared using the chi-squared test. The Breslow-Day test of homogeneity was performed to assess the effect modification by ICU admission on the thromboprophylaxis. All analyses were performed using two-sided tests at a significance level of 0.05 with SAS software version 9.4 (SAS Institute, Inc., North Carolina, United States).
# [2] = tested on: critically ill patients admitted to the intensive care unit (ICU); assay: Occurrence of major bleeding (ISTH) in critically ill (ICU) patients; type: in vivo
# From the text: as §1, §2, §3, §4
# [3] = tested on: non-critically ill patients; assay: Occurrence of major bleeding in non-critically ill patients; type: in vivo
# From the text: as §1, with “Patients were randomly allocated in a 1:1 ratio to extended-duration betrixaban (35 to 42 days) or standard-duration enoxaparin (10±4 days).” left out
# as §4, with “The Breslow-Day test of homogeneity was performed to assess the effect modification by ICU admission on the thromboprophylaxis. All analyses were performed using two-sided tests at a significance level of 0.05 with SAS software version 9.4 (SAS Institute, Inc., North Carolina, United States).” left out
# [4] = Exposure of betrixaban on co-administration with a Pgp inhibitor; type: in vivo; details: concomitant Pgp inhibitor
# [5] = tested on: critically ill patients admitted to the intensive care unit (ICU); assay: Occurrence of major or clinically relevant non-major bleeding (ISTH) in critically ill (ICU) patients; type: in vivo
# From the text: as §1, §2, §3, §4
# [6] = tested on: non-critically ill patients; assay: Occurrence of VTE in non-critically ill patients; type: in vivo, human
# From the text: as §1, with “Patients were randomly allocated in a 1:1 ratio to extended-duration betrixaban (35 to 42 days) or standard-duration enoxaparin (10±4 days).” left out
# as §4, with “The Breslow-Day test of homogeneity was performed to assess the effect modification by ICU admission on the thromboprophylaxis. All analyses were performed using two-sided tests at a significance level of 0.05 with SAS software version 9.4 (SAS Institute, Inc., North Carolina, United States).” left out
# [7] = full-dose stratum (betrixaban 80 mg daily vs. enoxaparin 40 mg daily), end of study through 77 days
# [8] = full-dose stratum (betrixaban 80 mg daily vs. enoxaparin 40 mg daily), end of study through 77 days, listed as betrixaban
# [9] = full-dose stratum (betrixaban 80 mg daily vs. enoxaparin 40 mg daily), through 42 days
# [10] = full-dose stratum, through 42 days
# [11] = full-dose stratum, through 77 days
# [12] = mITT population, end of extended thromboprophylaxis through 42 days
# [13] = mITT population, end of study through 77 days
# [14] = mITT population, through 42 days
# [15] = mITT population, through 77 days
# [16] = full-dose stratum (betrixaban 80 mg daily vs. enoxaparin 40 mg daily), through 7 days after discontinuation
# [17] = full-dose stratum (betrixaban 80 mg daily vs. enoxaparin 40 mg daily), through 7 days after discontinuation, listed as betrixaban
# [18] = full-dose stratum, through 7 days after discontinuation
# [19] = safety population, end of study through 77 days
# [20] = safety population, end of study through 77 days, listed as betrixaban
# [21] = safety population, through 7 days after discontinuation
# [22] = safety population, through 7 days after discontinuation of study medication
# [23] = safety population, through 7 days after discontinuation of study medication, listed as betrixaban
# [24] = safety population, through 77 days
compound,measurement,setting,value
"COc1ccc(NC(=O)c2ccc(C(=N)N(C)C)cc2)c(C(=O)Nc2ccc(Cl)cn2)c1 [Betrixaban, N-(5-chloropyridin-2-yl)-2-(4-(N,N-dimethylcarbamimidoyl)benzamido)-5-methoxybenzamide]",reduction of the risk of VTE compared with enoxaparin,"[1]; critically ill patients, end of extended thromboprophylaxis through 42 days",46%
same,relative risk reduction of VTE compared with enoxaparin,"[1]; critically ill patients, end of study through 77 days",52%
same,"risk reduction in the VTE components (asymptomatic proximal DVT, symptomatic DVT, non-fatal PE, VTE-related death)","[1]; critically ill patients, vs. enoxaparin",did not reach statistical difference
same,VTE events / patients (n/N),[1]; [7],9/214
same,risk of VTE (rate),[1]; [7],(4.21%)
same,risk of VTE (rate),[1]; [8],4.21%
same,VTE events / patients (n/N),[1]; [9],9/271
same,risk of VTE (rate),[1]; [9],(3.32%)
same,risk of VTE (rate),"[1]; full-dose stratum (betrixaban 80 mg daily vs. enoxaparin 40 mg daily), through 42 days, listed as betrixaban",3.32%
same,VTE ARD (absolute risk difference) betrixaban vs. enoxaparin,[1]; [10],−5.01%
same,VTE NNT or NNH,[1]; [10],20
same,VTE RR (relative risk) betrixaban vs. enoxaparin,[1]; [10],0.40
same,VTE ARD (absolute risk difference) betrixaban vs. enoxaparin,[1]; [11],−7.20%
same,VTE NNT or NNH,[1]; [11],14
same,VTE RR (relative risk) betrixaban vs. enoxaparin,[1]; [11],0.37
same,VTE events / patients (n/N),[1]; [12],15/351
same,risk of VTE (rate),[1]; [12],(4.27%)
same,risk of VTE (rate),"[1]; mITT population, end of extended thromboprophylaxis through 42 days, listed as betrixaban",4.27%
same,VTE events / patients (n/N),[1]; [13],15/286
same,risk of VTE (rate),[1]; [13],(5.24%)
same,risk of VTE (rate),"[1]; mITT population, end of study through 77 days, listed as betrixaban",5.24%
same,VTE ARD (absolute risk difference) betrixaban vs. enoxaparin,[1]; [14],−3.68%
same,VTE NNT or NNH,[1]; [14],28
same,VTE RR (relative risk) betrixaban vs. enoxaparin,[1]; [14],0.54
same,VTE ARD (absolute risk difference) betrixaban vs. enoxaparin,[1]; [15],−5.63%
same,VTE NNT or NNH,[1]; [15],18
same,VTE RR (relative risk) betrixaban vs. enoxaparin,[1]; [15],0.48
same,major bleeding events / patients (n/N),[2]; [7],1/271
same,risk of major bleeding (rate),[2]; [7],(0.37%)
same,risk of major bleeding (rate),[2]; [8],0.37%
same,major bleeding events / patients (n/N),[2]; [16],0/271
same,risk of major bleeding (rate),[2]; [16],(0.00%)
same,risk of major bleeding (rate),[2]; [17],0.00%
same,major bleeding ARD betrixaban vs. enoxaparin,[2]; [18],−3.26%
same,major bleeding NNT or NNH,[2]; [18],31
same,major bleeding ARD betrixaban vs. enoxaparin,[2]; [11],−3.25%
same,major bleeding NNT or NNH,[2]; [11],31
same,major bleeding RR betrixaban vs. enoxaparin,[2]; [11],0.10
same,major bleeding events / patients (n/N),[2]; [19],5/351
same,risk of major bleeding (rate),[2]; [19],(1.42%)
same,risk of major bleeding (rate),[2]; [20],1.42%
same,major bleeding ARD betrixaban vs. enoxaparin,[2]; [21],−1.99%
same,major bleeding RR betrixaban vs. enoxaparin,[2]; [21],0.36
same,major bleeding events / patients (n/N),[2]; [22],4/351
same,risk of major bleeding (rate),[2]; [22],(1.14%)
same,risk of major bleeding (rate),[2]; [23],1.14%
same,major bleeding ARD betrixaban vs. enoxaparin,[2]; [24],−1.98%
same,major bleeding RR betrixaban vs. enoxaparin,[2]; [24],0.42
same,"rates of major bleeding, betrixaban vs. enoxaparin",[3],no difference
same,effect of Pgp inhibitor on exposure of betrixaban,[4],increases the exposure
same,major or clinically relevant non-major bleeding events / patients (n/N),[5]; [7],11/271
same,risk of major or clinically relevant non-major bleeding (rate),[5]; [7],(4.06%)
same,risk of major or clinically relevant non-major bleeding (rate),[5]; [8],4.06%
same,major or clinically relevant non-major bleeding events / patients (n/N),[5]; [16],9/271
same,risk of major or clinically relevant non-major bleeding (rate),[5]; [16],(3.32%)
same,risk of major or clinically relevant non-major bleeding (rate),[5]; [17],3.32%
same,major or clinically relevant non-major bleeding ARD betrixaban vs. enoxaparin,[5]; [18],−0.30%
same,major or clinically relevant non-major bleeding RR betrixaban vs. enoxaparin,[5]; [18],0.92
same,major or clinically relevant non-major bleeding ARD betrixaban vs. enoxaparin,[5]; [11],0.07%
same,major or clinically relevant non-major bleeding RR betrixaban vs. enoxaparin,[5]; [11],1.02
same,major or clinically relevant non-major bleeding events / patients (n/N),[5]; [19],15/351
same,risk of major or clinically relevant non-major bleeding (rate),[5]; [19],(4.27%)
same,risk of major or clinically relevant non-major bleeding (rate),[5]; [20],4.27%
same,major or clinically relevant non-major bleeding ARD betrixaban vs. enoxaparin,[5]; [21],0.29%
same,major or clinically relevant non-major bleeding RR betrixaban vs. enoxaparin,[5]; [21],1.09
same,major or clinically relevant non-major bleeding events / patients (n/N),[5]; [22],13/351
same,risk of major or clinically relevant non-major bleeding (rate),[5]; [22],(3.70%)
same,risk of major or clinically relevant non-major bleeding (rate),[5]; [23],3.70%
same,major or clinically relevant non-major bleeding ARD betrixaban vs. enoxaparin,[5]; [24],0.58%
same,major or clinically relevant non-major bleeding RR betrixaban vs. enoxaparin,[5]; [24],1.16
same,reduction of VTE risk,[6]; end of extended thromboprophylaxis,23%
same,reduction of VTE risk,[6]; end of study,24%
Enoxaparin [reference compound],VTE events / patients (n/N),[1]; [7],26/228
same,risk of VTE (rate),[1]; [7],(11.40%)
same,risk of VTE (rate),"[1]; full-dose stratum (betrixaban 80 mg daily vs. enoxaparin 40 mg daily), end of study through 77 days, listed as enoxaparin",11.40%
same,VTE events / patients (n/N),[1]; [9],23/276
same,risk of VTE (rate),[1]; [9],(8.33%)
same,risk of VTE (rate),"[1]; full-dose stratum (betrixaban 80 mg daily vs. enoxaparin 40 mg daily), through 42 days, listed as enoxaparin",8.33%
same,VTE events / patients (n/N),[1]; [12],28/352
same,risk of VTE (rate),[1]; [12],(7.95%)
same,risk of VTE (rate),"[1]; mITT population, end of extended thromboprophylaxis through 42 days, listed as enoxaparin",7.95%
same,VTE events / patients (n/N),[1]; [13],31/285
same,risk of VTE (rate),[1]; [13],(10.88%)
same,risk of VTE (rate),"[1]; mITT population, end of study through 77 days, listed as enoxaparin",10.88%
